PubChem BioAssay (NCI)
“And” between values parts separate entries of the source, which are not always exact repeats. Equal values may be shown once.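 Interpolation was linear, between the two tested concentrations surrounding the appropriate level; five concentrations were tested over 48 hours in 96-well plates. GI50 = concentration required for 50% inhibition of growth. At the TGI there is no net growth.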

Legend:
Assay in all cases: growth of human tumour cells (NCI), 48 h
NCI-H460 lung = test system: NCI-H460 lung
CAKI-1 renal = test system: CAKI-1 renal
SF-539 CNS = test system: SF-539 CNS
UACC-62 melanoma = test system: UACC-62 melanoma
IGROV1 ovarian = test system: IGROV1 ovarian
CCRF-CEM leukemia = test system: CCRF-CEM leukemia
OVCAR-5 ovarian = test system: OVCAR-5 ovarian
NCI-H23 lung = test system: NCI-H23 lung
KM12 colon = test system: KM12 colon
SK-MEL-5 melanoma = test system: SK-MEL-5 melanoma
MDA-MB-231 breast = test system: MDA-MB-231 breast
DU-145 prostate = test system: DU-145 prostate

SMILES	TGI (NCI-H460 lung) [µM]	TGI (CAKI-1 renal) [µM]	TGI (SF-539 CNS)	TGI (UACC-62 melanoma) [µM]	TGI (IGROV1 ovarian) [µM]	TGI (CCRF-CEM leukemia) [µM]	TGI (OVCAR-5 ovarian) [µM]	TGI (NCI-H23 lung) [µM]	TGI (KM12 colon) [µM]	TGI (SK-MEL-5 melanoma) [µM]	TGI (MDA-MB-231 breast) [µM]	TGI (DU-145 prostate) [µM]	GI50 (NCI-H460 lung)	GI50 (SF-539 CNS)	GI50 (UACC-62 melanoma)	GI50 (CCRF-CEM leukemia)	GI50 (OVCAR-5 ovarian)	GI50 (NCI-H23 lung)
Cc1nc2sccn2c1C(=O)NN	> 100	> 100	> 100 µM	> 100	> 100	> 100	> 100	> 100	> 100	> 100								
CCOC(=O)C1(C#N)OC(=O)c2cnccc21 (stereo not given)	> 100	> 100	> 100 µM	> 100	> 100	> 100	> 100	> 100	> 100		> 100	> 100						
OC12c3ccccc3C1CCCCC2N1CCCC1 (stereo not given)	> 100			> 100		> 100		> 100	> 100	> 100								
CSc1nc(-c2ccc(Cl)cc2)c(C#N)c(=O)n1C1OC(COC(C)=O)C(OC(C)=O)C(OC(C)=O)C1OC(C)=O (stereo not given)	> 100	> 100	31.6 µM and > 100 µM	> 100	> 100	> 100	> 100	> 100	> 100	> 100			27.3 µM and > 100 µM	15.2 µM and > 100 µM	30.5 µM and > 100 µM	> 7.5 µM and 65.1 µM	31.3 µM and > 100 µM	22.2 µM and > 100 µM
N#CC12C(=O)N3C(=NC(c4ccco4)NC3c3ccco3)C1(C#N)C(c1ccco1)NC1=C2CCCC1 (stereo not given)	> 100	> 100		> 100	> 100		> 100	> 100	> 100	> 100	> 100	> 100						
NC(=O)C1CCCN1C(=O)C(Cc1cnc[nH]1)NC(=O)C1CCCC1 (stereo not given)	> 100	> 100		> 100	> 100	> 100	> 100	> 100	> 100	> 100	> 100	> 100						
CN=C1Nc2ccccc2C(=O)N2CSCC12 (stereo not given)	> 100	> 100		> 100	> 100	> 100	> 100		> 100	> 100	> 100	> 100						
COc1cc(OC)cc(OCc2nc3cc(C(F)(F)F)ccc3nc2-c2ccccc2)c1	> 100	> 100	> 100 µM	> 100	> 100	> 100	> 100	> 100	> 100		> 100	> 100						
C=CCN(c1cc(OC)c(NC(C)=O)cc1[N+](=O)[O-])S(C)(=O)=O	> 100	> 100		> 100	> 100	> 100	> 100	> 100	> 100	> 100	> 100	> 100						
O=C(Nc1ccccc1)c1cc(S(=O)(=O)Nc2n[nH]c(=O)n2-c2ccccc2)c(S)cc1Cl	> 100	> 100	> 100 µM	> 100	> 100		> 100		> 100	> 100	> 100	> 100						
O=C1/C(=C/c2cccc(Cl)c2)CCCc2ccccc21	31.2	94.5	32.1 µM	27	31.8	30.4	31.2	36	32.3		38.2	40.2						
Nc1nc(Cl)cc(NCC2(O)CCC2)n1	> 100	> 100	> 100 µM	> 100	> 100		> 100	> 100	> 100	> 100	> 100	> 100						
COc1ccccc1Nc1nc2c([nH]1)c(=O)n(C)c(=O)n2C		> 10		> 10	> 10	> 10		> 10	> 10	> 10	> 10	> 10						
CSC1=N/C(=C\c2ccc(Cl)cc2)C(=O)N1CN1CCCCC1				> 100	93.2	> 100	> 100	> 100	> 100	> 100	> 100	> 100						
COc1ccc2c3c1OC1C(F)C=CC4(O)C(C2)NCCC314 (stereo not given)	21.4	6.56		10.5	20.3	3.91	12.8	6.64	13	16.1	12.7	9.71						
COc1cc2cc(OC(C)=O)c3cc4c(cc3c2c(OC)c1OC)OCO4	> 100		> 100 µM		> 100	> 100	> 100	> 100	> 100	> 100								
CC(/C=C/C(=O)NO)=C\C(C)C(=O)c1ccc(N(C)C)cc1 (stereo not given)	0.0658	0.0863	2.04 µM	0.063	0.28		4.6	4	0.932	0.187	0.0538	0.0792						
O=C(Nc1ccc(C(F)(F)F)cc1)NC(F)(F)F		> 100	> 100 µM		> 100	> 100	> 100	> 100		> 100								
C=CC(=O)Nc1ccc(NC(=O)C=C)c2c1C(=O)c1ccccc1C2=O	> 100		70.9 µM	90.8	> 100		> 100	> 100	29.1	> 100	> 100							
C=CCOC(=O)CC[C@H](NC(=O)[C@@H](CCC(F)(F)F)Cc1ccc(O)cc1)C(=O)OCC=C		> 100	> 100 µM	> 100	> 100		> 100	> 100	> 100	35								
CCn1cc2c(=O)n3ncn(-c4ccc(Br)cc4)c3nc2n1		> 100		> 100	> 100	> 100	> 100	> 100	> 100	> 100	> 100	> 100						
